Results reported in ChEMBL document CHEMBL1136061, “Novel potent antagonists of human neuropeptide Y Y5 receptors. Part 2: substituted benzo[a]cycloheptene derivatives” (Bioorg Med Chem Lett, 2002).

Tests used:
[1] = molecular target: T1, Neuropeptide Y receptor type 5 (Homo sapiens, UniProt Q15761); assay: (§1) Concentration that inhibited 50% of total specific binding of [125I]PYY ligand to human NPY-Y5 receptor
T1 sequence (Q15761 whole entry): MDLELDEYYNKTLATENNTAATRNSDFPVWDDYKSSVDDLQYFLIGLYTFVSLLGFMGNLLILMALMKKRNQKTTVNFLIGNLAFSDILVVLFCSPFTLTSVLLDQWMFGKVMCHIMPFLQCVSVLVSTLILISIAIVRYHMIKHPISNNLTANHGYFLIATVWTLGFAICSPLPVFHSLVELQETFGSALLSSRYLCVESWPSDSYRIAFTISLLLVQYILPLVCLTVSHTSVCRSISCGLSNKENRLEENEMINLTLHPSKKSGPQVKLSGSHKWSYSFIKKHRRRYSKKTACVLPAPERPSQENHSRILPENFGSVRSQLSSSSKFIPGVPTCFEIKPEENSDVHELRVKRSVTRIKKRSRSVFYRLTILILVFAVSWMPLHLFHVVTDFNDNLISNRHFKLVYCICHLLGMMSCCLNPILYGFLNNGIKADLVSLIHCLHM

[2] = molecular target: T2, Neuropeptide Y receptor type 1 (Homo sapiens, UniProt P25929); assay: Concentration that inhibited 50% of total specific binding of [125I]PYY ligand to human NPY-Y1 receptor
T2 sequence (P25929 whole entry): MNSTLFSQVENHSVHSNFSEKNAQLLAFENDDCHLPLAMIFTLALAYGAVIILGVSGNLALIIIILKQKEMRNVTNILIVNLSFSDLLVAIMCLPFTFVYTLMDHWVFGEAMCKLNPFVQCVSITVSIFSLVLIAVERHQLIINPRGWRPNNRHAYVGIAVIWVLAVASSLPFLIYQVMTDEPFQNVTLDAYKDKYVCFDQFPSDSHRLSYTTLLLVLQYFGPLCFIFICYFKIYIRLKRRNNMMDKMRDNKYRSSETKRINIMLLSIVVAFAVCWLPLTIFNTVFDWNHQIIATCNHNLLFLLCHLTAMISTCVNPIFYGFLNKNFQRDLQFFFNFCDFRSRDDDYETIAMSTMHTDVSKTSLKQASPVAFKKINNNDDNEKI

[3] = molecular target: T3, Neuropeptide Y receptor type 5 (Homo sapiens) (UniProt Q15761); assay: as §1
T3 sequence (whole entry): T1 sequence (Q15761 whole entry)

| SMILES | IC50 [1] [µM] | IC50 [2] [µM] | inhibition [3] [%] |
| --- | --- | --- | --- |
| COc1ccc2c(c1)CC(CNC1CCN(CCNS(=O)(=O)c3cccc4ccccc34)CC1)CCC2 (stereo not drawn) | 0.039 | 29 | – |
| COc1ccc2c(c1)CC(NC1CCN(CCNS(=O)(=O)c3cccc4ccccc34)CC1)CCC2 (stereo not drawn) | 0.066 | 35 | – |
| COc1cc2c(cc1OC)CC(NCC1CCN(CCNS(=O)(=O)c3cccc4ccccc34)CC1)CCC2 (stereo not drawn) | 0.068 | 17 | – |
| O=S(=O)(NCCN1CC(CNC2CCCc3ccc(Cl)cc3C2)C1)c1cccc2ccccc12 (stereo not drawn) | 0.31 | – | – |
| O=[N+]([O-])c1ccc2c(c1)CC(NCC1CCN(CCNS(=O)(=O)c3cccc4ccccc34)CC1)CCC2 (stereo not drawn) | 0.079 | 15 | – |
| COc1ccc2c(c1)CCCC(NCCN1CCC(CNS(=O)(=O)c3cccc4ccccc34)CC1)C2 (stereo not drawn) | 1 | – | – |
| CCOC(=O)COc1ccc2c(c1)CC(NCC1CCN(CCNS(=O)(=O)c3cccc4ccccc34)CC1)CCC2 (stereo not drawn) | 0.68 | – | – |
| Cc1ccc2c(c1)CC(NCC1CN(CCNS(=O)(=O)c3cccc4ccccc34)C1)CCC2 (stereo not drawn) | 0.19 | – | – |
| O=S(=O)(NCCN1CCC(CNC2CCCc3ccccc3C2)CC1)c1cccc2ccccc12 (stereo not drawn) | 0.21 | – | – |
| COc1ccc2c(c1)CC(CNCC1CCN(CCNS(=O)(=O)c3cccc4ccccc34)CC1)CCC2 (stereo not drawn) | 0.016 | 9.6 | – |
| O=C(O)COc1ccc2c(c1)CC(NCC1CCN(CCNS(=O)(=O)c3cccc4ccccc34)CC1)CCC2 (stereo not drawn) | – | – | 25.7 |
| COc1ccc2c(c1)CC(CNCCN1CCC(CNS(=O)(=O)c3cccc4ccccc34)CC1)CCC2 (stereo not drawn) | 0.54 | 2.8 | – |
| O=S(=O)(NCCN1CCC(CNC2CCCc3ccc(Cl)cc3C2)CC1)c1cccc2ccccc12 (stereo not drawn) | 0.085 | 8.5 | – |
| COc1ccc2c(c1)CC(NCC1CCN(CCNS(=O)(=O)c3cccc4ccccc34)CC1)CCC2 (stereo not drawn) | 0.045 | 14 | – |

Other lines, results leading:

| IC50 [1] [µM] | IC50 [2] [µM] | inhibition [3] [%] | SMILES |
| --- | --- | --- | --- |
| > 1 | – | – | COc1cccc2c1CCCC(NCCN1CCC(CNS(=O)(=O)c3cccc4ccccc34)CC1)C2 (stereo not drawn) |
| 0.086 | 22 | – | COc1ccc2c(c1)CC(CNCC1CN(CCNS(=O)(=O)c3cccc4ccccc34)C1)CCC2 (stereo not drawn) |
| 0.038 | 1.3 | – | O=S(=O)(NC[C@H]1CC[C@@H](CNCC2CCc3ccccc3C2)CC1)c1cccc2ccccc12 (stereo partly drawn) |
| 0.14 | – | – | COc1ccc2c(c1OC)CC(NCC1CN(CCNS(=O)(=O)c3cccc4ccccc34)C1)CCC2 (stereo not drawn) |
| 0.74 | 19 | – | COc1ccc2c(c1)CC(NCCN1CCC(CNS(=O)(=O)c3cccc4ccccc34)CC1)CCC2 (stereo not drawn) |
| 0.072 | 18 | – | Cc1ccc2c(c1)CC(NCC1CCN(CCNS(=O)(=O)c3cccc4ccccc34)CC1)CCC2 (stereo not drawn) |
| 0.052 | – | – | Nc1ccc2c(c1)CC(NCC1CCN(CCNS(=O)(=O)c3cccc4ccccc34)CC1)CCC2 (stereo not drawn) |
